Measurements taken from a melting point compilation (Tetko et al.; mined from patent text by program, amines drawn as free bases though some values may be those of a salt).

Row | SMILES | melting point
1 | CCc1cc(CCc2nc3ccccc3o2)c(=S)[nH]c1C | 199 to 201 °C
2 | N=C(N)Nc1nc2ccccc2n1Cc1ccccc1 | 167 °C
3 | O=C(NN1CCCC1)C(CS)Cc1ccccc1 (stereo not given) | 93 °C
4 | CCC(Br)C(=O)c1ccc(OC)c(OC(F)F)c1 (stereo not given) | 105 °C
5 | Cc1ccc(Cl)cc1N1C(=O)CN=C1SCc1ccccc1 | 140 to 142 °C
6 | Oc1ccc(-c2cnc(-c3ccccc3)[nH]c2=S)cc1O | 220 °C
7 | CC(Cc1ccc(OCc2ccccc2)cc1)NCC(O)c1cc2ccccc2o1 (stereo not given) | 111 to 122 °C
8 | CS(=O)c1cc2n(c1C(=O)c1ccc(Br)cc1)CCC2C(=O)O (stereo not given) | 226 to 227 °C
9 | O=C1C(=O)c2ccccc2C2=C1SCC1(CCN(C(=O)c3cccc(C(F)(F)F)c3)CC1)O2 | 165 to 166 °C
10 | Cn1cc(S(C)=O)c(=O)c2ccc(Cl)cc21 (stereo not given) | 245 to 247 °C
11 | Cc1c(Cc2cccc(C(F)(F)F)c2)oc2cccc(-c3cccc(C(=O)NCCO)c3)c12 | 139 to 141 °C
12 | O=C(Nc1cccc(NC(=O)C(F)(F)C(F)(F)F)c1)Nc1ccc(Cl)c(Cl)c1 | 195 to 197 °C
13 | COc1ccc(C2C(=O)NC(C)(C(C)C)C2=O)c(Cl)c1 (stereo not given) | 130 to 140 °C
14 | CCN(CC)C(=O)c1ccc2c(c1)C(=C(Cl)Cl)OC(C(Cl)(Cl)Cl)O2 (stereo not given) | 123 to 124 °C
15 | C#CCc1c(C)nc2c(NCc3c(C)cccc3NC(=O)CO)cccn12 | 195 to 196 °C
16 | Cc1c(Cc2cccnc2)sc2ccc(C(=O)O)cc12 | 230 to 232 °C
17 | CCOC(=O)c1sc2cc(OCc3cccnc3)ccc2c1Sc1ccccc1N(S(C)(=O)=O)S(C)(=O)=O | 165 to 167 °C
18 | CCCCCCn1c(=O)[nH][nH]c1=O | 144 to 145 °C
19 | CCOC(=O)c1sc(I)nc1C(F)(F)F | 75 to 76 °C
20 | Cc1noc2cc(N3CCOCC3)ccc12 | 138 to 140 °C
21 | Cc1cccc(CN2CCc3ccc(C(=O)CCC(=O)N4CCC(c5ccc(Cl)cc5)CC4)cc3CC2)c1 | 127 to 128 °C
22 | O=C1c2c(Cl)cccc2-n2cnc(-c3nc(C4CCC4)no3)c2[C@@H]2CCCN12 | 183 to 185 °C
23 | CC(=O)c1ccc(Nc2cccc(-c3cncnc3)c2)c([N+](=O)[O-])c1 | 131 to 132 °C
24 | CCCCN1CCCN(c2ccccc2)c2cc(Cl)ccc21 | 159 to 161 °C
25 | O=C(O)c1cnc(CO)s1 | 193 °C

Row | SMILES | melting point
26 | CC(C)Cn1c(CO)c(-c2cccc(F)c2)c2cc(OCc3ccccc3)ccc2c1=O | 146 °C
27 | O=C(Cl)CC1(c2ccccc2)C(=O)Oc2ccc(Cl)cc21 (stereo not given) | 107 °C
28 | Cc1ccc(C(=O)c2[nH]c3cc(Cl)ccc3c2CC(=O)O)nc1 | 235 to 238 °C
29 | N#CC1(c2ccccc2)CCN(C(=O)CC(c2ccccc2)(c2ccccc2)c2ccccc2)CC1 | 188 to 190 °C
30 | COc1nc(C)c(N2CCCn3c2nc2c(Cl)ccc(C(OCC(F)(F)F)C4CC4)c23)c(C)n1 (stereo not given) | 225 to 227 °C
31 | CCOC(=O)C1=C(C)NC(C)=C(C(=O)OCCSC(C)=O)C1c1cccc([N+](=O)[O-])c1 (stereo not given) | 98 to 101 °C
32 | CCOC(=O)N1CCC(Nc2nc3cccnc3n2Cc2ccco2)CC1 | 149 °C
33 | CC(Cc1ccccc1)(C(=O)NO)S(=O)(=O)c1cccs1 (stereo not given) | 116 to 117 °C
34 | CCCCCCCCSc1cc(SCCCCCCCC)c2ccc3c(SCCCCCCCC)cc(SCCCCCCCC)c4ccc1c2c43 | 110 °C
35 | O=C(OCC1OC(n2cnc3c(N(C(=O)c4ccccc4)C(=O)c4ccccc4)ncnc32)C(O)(C(=O)c2ccccc2)C1(O)C(=O)c1ccccc1)c1ccccc1 (stereo not given) | 183 to 184 °C
36 | Oc1ccc(-c2nn(-c3cc(F)ccc3F)c3cc(O)ccc23)c(O)c1 | 88 to 91 °C
37 | COC(=O)c1sccc1NC(=O)c1ccccc1SSc1ccccc1C(=O)Nc1ccsc1C(=O)OC | 250 to 252 °C
38 | COC(=O)c1nn(-c2ccccc2)c2sc(CN3CCOCC3)cc2c1=O | 167 to 169 °C
39 | NCC1Cc2cc(-c3ccc(F)cc3)cc(F)c2O1 (stereo not given) | > 250 °C
40 | CC(Oc1ccc(OCc2ccccc2)cc1)C(=O)N(C)C#N (stereo not given) | 56 to 58 °C
41 | COc1cc(C2(OC)CCOCC2)ccc1OCc1ccc2ccccc2c1 | 129 °C
42 | COc1ccc(-c2ccc(C=O)c(Cl)c2)cc1F | 116 to 118 °C
43 | O[C@@H]1CCCC[C@H]1N=Cc1ccccc1 (relative stereo) | 86 °C
44 | NC(=O)C(=O)NC(C(=O)OC(c1ccccc1)c1ccccc1)c1ccco1 (stereo not given) | 168 to 170 °C
45 | CCCc1c(OCCCOc2ccc3c(c2CCC)OC(C(=O)OC)CC3)ccc(C(C)=O)c1O (stereo not given) | 70 to 72 °C
46 | CCOC(=O)c1cnc2sc(SCc3ccccc3)nn2c1=O | 129 to 132 °C
47 | O=C(Cc1ccccc1)Nc1cnc(-c2ccccc2)nc1Cl | 169 °C
48 | CCCCN(C)C(=O)CSCCCCCCOc1ccc(C2=C(c3ccccc3)CCCc3cc(O)ccc32)cc1 | 103 to 105 °C
49 | O=C(O)Cc1ccc(-n2sc3ccccc3c2=O)cc1 | 173 to 175 °C
50 | CC1(Cn2c(=O)oc3ccc(-c4ccccc4)cc32)Cn2cc([N+](=O)[O-])nc2O1 (stereo not given) | 254 to 255 °C
